Read-outs that look alike come from different tables or passages of the source.

For one data set, the system named is P. aeruginosa. The data set can be described thus: Bactericidal test: CFU count after incubation in PBS buffer. In kind it is cell-based, Pseudomonas aeruginosa.
Data set [1] concerns vesicular stomatitis virus (VSV). Type of data set: cell-based. The following applies: Ibuprofen at 50 mM, virus incubated 60 minutes at 37° C.
The test system of data set [2] is Rubella virus strain (MV). Type of data set: cell-based. As to conditions: Ibuprofen at 50 mM, virus incubated 60 minutes at 37° C.
The conditions of data set [3]: solubilised in water; cited from earlier work.
For data set [4], the system named is BVDV bovine diarrhea virus. In kind it is cell-based. As to conditions: Ibuprofen at 50 mM, virus incubated 60 minutes at 37° C.
Data set [5] has as its system Herpes Simplex 1 virus (HSV). Type of data set: cell-based. As to conditions: Ibuprofen at 50 mM, virus incubated 60 minutes at 37° C.
In the next data set the test system is Burkhordelia cepacia. In kind it is cell-based. As to conditions: 4 h incubation at 37° C., control 130,000, Example 10.
Data set [6] has as its system artificial biofilm of P. aeruginosa. As to the kind of experiment: Antimicrobial effect on artificial biofilm (2% alginate solution). In kind it is cell-based, Pseudomonas aeruginosa. As to conditions: Biofilm (2% alginate) + ionic strength (1 M NaCl), 4 hours at 37° C., control 2,000,000, Example 21. The method, then:
Work consisted of incubating bacterial populations of a known load in terms of CFU/mL with the compounds mentioned in different molar concentrations. In vitro test batteries were organized at different doses or concentrations and in 1.5 mL Eppendorf tubes without the addition of culture medium. To this purpose, a PBS 100 mM phosphate buffer was used to maintain physiological conditions throughout the period of each test at 37° C. […] Each plate was added with 5 uL of a solution of 2,3,5-metabolic dye triphenyltetrazolium of chloride (TTC) 1% to enhance the contrast of colonies. Plates were incubated in inverted position, in a culture stove for 24-48 hours at 37° C. and subsequently the direct count was done, adjusted by dilution factors and seeding to report results in terms of CFU/mL. […] Treatments lasted 4 hours at 37° C.

Procedure for Burkhordelia cepacia: In this case, tests were run on a non-nutritive liquid carrier (buffer solution) wherein the antimicrobial agent is mixed with quantified inocula of pure bacterial cultures. After different incubation times, the material is seeded on agar plates to perform quantification assays on the number of bacterias surviving the treatment.
When the time for each assay finished, aliquots of 100 uL and decimal dilutions of each tube which were seeded on petri dishes for the direct count of colony forming units (CFU) in Mueller Hinton agar (MHA), using pour-plating or spread-plating standard methods.
During testing, the medium was stored in thermostatic bath between 45-50° C. because the seeding technique requires imbibing and integrating bacteria in the medium.

`CC(C)Cc1ccc(C(C)C(=O)O)cc1` (centres unmarked) [IBU-H, PROTONATED IBUPROFEN]: the “P. aeruginosa (UFC/mL ± 10)” value in the data set on P. aeruginosa (IBU 10 mM, 4 h at 37° C., control 1,700,000, Example 4) is on record as 480,000 UFC/mL; in the data set on P. aeruginosa (IBU 20 mM, 4 h at 37° C., control 1,700,000, Example 4), 200,000 UFC/mL; with P. aeruginosa (IBU 50 mM, 4 h at 37° C., control 1,700,000, Example 4) it was 1000 UFC/mL; with P. aeruginosa (IBU 100 mM, 4 h at 37° C., control 1,700,000, Example 4), 10 UFC/mL.
`CC(C)Cc1ccc(C(C)C(=O)O)cc1` (centres unmarked) [Ibuprofen, ibuprofen]: the “Reduction of viral level” value in data set [1] is >7.7 TCID50 mL-1; in data set [2] it was >5.0 TCID50 mL-1; in data set [4], >6.5 TCID50 mL-1; in data set [5], >6.9 TCID50 mL-1. Also, in data set [3], the “critical micelle concentration (CMC)” value was “about 180 mM”.
In the case of `[Cl-].[Na+]` [NaCl], the “P. aeruginosa (UFC/mL ± 10)” value in the data set with P. aeruginosa (NaCl 0.01 M, 4 hours at 37° C., control 2,000,000, Example 11) was 2,000,000 UFC/mL; in the data set with P. aeruginosa (NaCl 0.025 M, 4 hours at 37° C., control 2,000,000, Example 11) it was 2,000,000 UFC/mL; in the data set on P. aeruginosa (NaCl 0.1 M, 4 hours at 37° C., control 2,000,000, Example 11), 2,000,000 UFC/mL; with P. aeruginosa (NaCl 0.25 M, 4 hours at 37° C., control 2,000,000, Example 11), 1,800,000 UFC/mL; with P. aeruginosa (NaCl 0.5 M (line between 0.025 and 0.1), 4 hours at 37° C., control 2,000,000, Example 11), 2,000,000 UFC/mL; with P. aeruginosa (NaCl 0.5 M (line between 0.25 and 1), 4 hours at 37° C., control 2,000,000, Example 11), 1,600,000 UFC/mL. The “P. aeruginosa (UFC/mL ± 10)” value in the data set on P. aeruginosa (NaCl 1 M, 4 hours at 37° C., control 2,000,000, Example 11) was 1,000,000 UFC/mL.
Take `COc1ccc2cc([C@H](C)C(=O)O)ccc2c1` [Naproxen]: the “B. cepacia (UFC/mL ± 10)” value in the data set with Burkhordelia cepacia (Naproxen 10 mM) is given as 125,000 UFC/mL; with Burkhordelia cepacia (Naproxen 25 mM), 38,000 UFC/mL; in the data set on Burkhordelia cepacia (Naproxen 50 mM), 31,000 UFC/mL; with Burkhordelia cepacia (Naproxen 100 mM), 1,300 UFC/mL.
Turning to `NC[C@H]1O[C@H](O[C@H]2[C@H](O)[C@@H](O[C@H]3O[C@H](CO)[C@@H](O)[C@H](N)[C@H]3O)[C@H](N)C[C@@H]2N)[C@H](N)C[C@@H]1O` [Tobramycin, tobramycin], the “P. aeruginosa (UFC/mL ± 10)” value with P. aeruginosa (Tobramycin 0.25 mM with ClNa (1M), 4 h at 37° C., control 1,000,000, Example 20) was 400,000 UFC/mL; in the data set on P. aeruginosa (Tobramycin 1 mM with ClNa (1M), 4 h at 37° C., control 1,000,000, Example 20) it was 10 UFC/mL; in the data set with P. aeruginosa (Tobramycin 1 mM, 1 hour, 37° C., control 2,000,000, Example 19), 1,000,000 UFC/mL; in the data set with P. aeruginosa (Tobramycin 1 mM, 4 hours, 37° C., control 2,000,000, Example 19) it was 30,000 UFC/mL; in the data set with P. aeruginosa (Tobramycin 1 mM, O.N., 37° C., control 2,000,000, Example 19), 30,000 UFC/mL; with P. aeruginosa (Tobramycin 2.5 mM, 1 hour, 37° C., control 2,000,000, Example 19) it was 60,000 UFC/mL. For the same compound, the “P. aeruginosa (UFC/mL ± 10)” value with P. aeruginosa (Tobramycin 2.5 mM, 4 hours, 37° C., control 2,000,000, Example 19) is 20,000 UFC/mL; with P. aeruginosa (Tobramycin 2.5 mM, O.N., 37° C., control 2,000,000, Example 19) it was 10 UFC/mL; in the data set on P. aeruginosa (Tobramycin 5 mM with ClNa (1M), 4 h at 37° C., control 1,000,000, Example 20), 10 UFC/mL; in the data set on P. aeruginosa (Tobramycin 5 mM, 1 hour, 37° C., control 2,000,000, Example 19), 30,000 UFC/mL; in the data set on P. aeruginosa (Tobramycin 5 mM, 4 hours, 37° C., control 2,000,000, Example 19) it was 1,000 UFC/mL; in the data set with P. aeruginosa (Tobramycin 5 mM, O.N., 37° C., control 2,000,000, Example 19) it was 10 UFC/mL. Also, the “P. aeruginosa (UFC/mL ± 10)” value is given as 10 UFC/mL in the data set on P. aeruginosa (Tobramycin 10 mM with ClNa (1M), 4 h at 37° C., control 1,000,000, Example 20); 1,000 UFC/mL in the data set on P. aeruginosa (Tobramycin 10 mM, 1 hour, 37° C., control 2,000,000, Example 19); 10 UFC/mL in the data set on P. aeruginosa (Tobramycin 10 mM, 4 hours, 37° C., control 2,000,000, Example 19); 10 UFC/mL in the data set on P. aeruginosa (Tobramycin 10 mM, O.N., 37° C., control 2,000,000, Example 19); 10 UFC/mL in data set [6] (5 mM); 10 UFC/mL in data set [6] (10 mM).
